One data set has as its system Mouse. The note with it: cited from earlier work.
The next data set can be described thus: in vivo. The note with it: male, C57BL/6, mouse, in vivo, po. The method, then: (§1) This product was added to the normal diet and consumed over a period of eight hours. Food was selected as the vehicle of choice due to solubility concerns of the Oxaloacetate and because of the anticipated use of the product.
(§2) C57BL/6 mice were used in this test. These mice were used because they are often used for longevity studies. Additionally, there is substantial information on Chronic exposure of the test compound with this breed of mice.
(§3) Male mice were used in the Acute study because male mice were used in the Chronic exposure study. Each animal was housed separately and was 2 months of age.
(§4) 5,000 mg/kg doses of the test compound were added to food, as it is anticipated that this product will be taken with a meal. Specifically,
(§5) Each animal was caged separately. Prior to feeding, the bedding in the animal cage was changed. Food was prepared by dissolving 100 mg of the test compound with each ml of distilled water, then rolling the appropriate amount of food pellets in the amount of water until the waster was absorbed to obtain the proper dosage per animal. The test compound laced food was placed in the cage with the animal at the end of the day. […] Water was provided freely.
(§6) After dosing the animals with the test compound, the animals were returned to a standard Ad Librium diet of food pellets and water.

The subject of data set [1] is C57BL/6 mice. As to the kind of experiment: in vivo. The method, then: as §1, §2, §3, §4, §5, §6
Data set [2] deals with C57BL/6 mice. The note with it: for Average increase in lifespan compared to the control group: daily dosage of 380 mg/kg, male C57BL/6 mice started at 9 months. How it is done:
as §1
C57BL/6 mice were used in this test. These mice were used because they are often used for longevity studies.
Male mice were used in the Chronic study because of their linear increase in weight with time. Females are less linear in their increase.
Each animal was housed separately and the test was started with older animals (9 months of age) as human use is primarily anticipated to be in the older populations. The test was continued until all animals died.
25 Male C57BL/6 mice with the same day of birth (plus or minus 1 week) were selected for the test. The mice were evaluated for fasting glucose levels and weight, and broken into three similar groups based on equalization of weight and fasting glucose levels.
Each animal was caged separately in a low stimulus environment and fed one of three diets. The first group was the Control Group, and it was fed an ad Librium balanced diet of mouse food pellets. The second group was calorie restricted 40% from the control group, as established by baseline feeding. […] At the end of 21 weeks, 3 mice from each group were sacrificed and their livers exhumed for genomic testing.
The remaining groups of mice were allowed to live the rest of their lives on the individualized diets for humane reasons. The study has been ongoing for 18 months.
The test compound laced food was placed in the cage with the animal at the end of each day. Water was provided freely.

Data set [3] concerns genomic expression in the livers. As to the kind of experiment: Genomic expression in the livers, Affymatrix Mouse Genome 430 2.0 Array. The format is in vivo. To be noted: for Percentage of genes moving in same direction as Calorie Restricted Mice (correlation): 1.7 fold expression cut-off. From the text:
In the calorie restricted mice, 1,763 genes changed in expression as compared to the control group. […] Comparison of common genes changed in expression between the Calorie Restricted group and the Oxaloacetic group indicated 363 genes in common.
If a 1.7 fold expression cut-off is used to eliminate false positives (commonly used in the literature), the correlation between the two groups becomes 100% for the genes in common, which drops down to 36 highly expressed or repressed genes. A table of the genes affected is seen in Table 1.

The subject of another data set is microbial growth. As to the kind of experiment: Preservative function: microbial growth in agar and cornmeal paste. The note with it: for microbial growth compared to control preparations: 8 mM in Nematode Growth Agar and cornmeal paste, monitored with a microscope. From the text:
These compositions where monitored over time with a microscope, and compared to control preparations.

Another data set deals with Caenorhabditis elegans. As to the kind of experiment: Lifespan toxicity test of preservative / acidizing agent. The format is in vivo. How it is done:
(§7) The toxicity of the preservative was tested by examining the lifespan of Caenorhabditis elegans, Drosophila melanogaster, and Mus musculus.
(§8) This dropped the pH of the agar from 6.0 to 5.3. The toxicity of the acidizing agent was tested by examining the lifespan of Caenorhabditis elegans.

The subject of the next data set is Drosophila melanogaster. As to the kind of experiment: Lifespan toxicity test of preservative. Type of data set: in vivo. The method, then: as §7
The next data set deals with Mus musculus. The note with it: in vivo. How it is done: as §7
Data set [4] in a line: Acidizing function: pH of agar. Type of data set: physicochemical. How it is done:
as §8

Read-outs that look alike come from different tables or passages of the source.

Consider four compounds from US20110064679A1 (priority 2008, published 2011).

The LD50 is the dose at which mortality reaches 50%.

`O=C(O)CC(O)C(=O)O` (centres unmarked) [Malic Acid]: the LD50 in the data set with Mouse (mouse, in vivo, po) is given as 1,600 mg/kg.
Turning to `CC(O)C(=O)O` (centres unmarked) [Lactic Acid], the LD50 in the data set on Mouse (Mouse data, injected, subcutaneous injection) is reported as 4,500 mg/kg.
`O=C(O)CC(=O)C(=O)O` [Oxaloacetic Acid] registered an LD50 at 8 h in “in vivo” above 5000 mg/kg. In the data set with C57BL/6 mice [1] (5,000 mg/kg with food, five male C57BL/6 mice), the “Survival at limitation dose” value is listed as “All animals survived”. For the same compound, the LD50 in the data set with C57BL/6 mice [1] (male, C57BL/6, mouse, in vivo, po, 8 h) is recorded as > 5,000 mg/kg. Further, the “Increase of residual lifespan over the control group” value with C57BL/6 mice [2] (0.4% in food, 380 mg/kg daily, started at age of 9 months) is recorded as 40%. Besides, the “Average increase in lifespan compared to the control group” value in the data set with C57BL/6 mice [2] (0.4% in food) was above 20%; in the data set with C57BL/6 mice [2] (0.4% in food, 380 mg/kg) it was 25%. In addition, the “Chronic toxicity compared to the control group” value with C57BL/6 mice [2] (mouse, in vivo, 380 mg/kg) is “negative toxicity”. Further, the “Genes Moving in Opposite Direction as Calorie Restricted Mice” value in [3] (1.7 Fold Cut Off) was 0. In addition, in data set [3] (1.7 Fold Cut Off), the “Genes Moving in Same Direction as Calorie Restricted Mice” value turned out to be 36. Besides, the “Percentage of genes moving in same direction as Calorie Restricted Mice (correlation)” value in [3] is 100%; in [3] (listed as Oxaloacetate) it was 100.0%. The “Directional correlation of genomic expression with the calorie restricted group” value in [3] (363 genes in common, no cut-off) amounted to 98.1%. Besides, the “OX to C Change” value in [3] (gene 9130019P20Rik, Affx No. 39136, mouse liver vs control) was 1. In addition, the “Genes changed in expression in common with the Calorie Restricted group” value in [3] (liver, after 21 weeks) is 363. Besides, the “Number of genes changed in expression as compared with the control group” value in data set [3] (liver, after 21 weeks on increasing diet) was determined as 765. Also, the “microbial growth compared to control preparations” value in the data set with microbial growth is “control preparation had more microbial growth”. The “smallest concentration producing a reduction in microbial activity” value in the data set with microbial growth (even when the salt is used) was 8 mM. Also, the “lifespan (toxicity of the preservative)” value with Caenorhabditis elegans, in the data set on Drosophila melanogaster and with Mus musculus was “no decrease in lifespan” throughout. In addition, in the data set with Caenorhabditis elegans (8 mM in agar), the “lifespan (toxicity of the acidizing agent)” value is “no decrease in lifespan”. For the same compound, the “smallest concentration producing a decrease in pH” value in [4] worked out at 1 mM. In data set [4] (8 mM in Nematode Growth Agar, dropped from 6.0), the “pH of the agar after addition” value is 5.3.
As for `O=C([O-])CC(=O)C(=O)O.[Na+]` [sodium oxaloacetate salt, sodium oxaloacetate], the “microbial growth compared to control preparations” value in the data set with microbial growth is “control preparations had more microbial growth”.
